Target: T1, PaPhzD (Pseudomonas aeruginosa, UniProt P0DPB9)
T1 construct: inferred from Ni-NTA purification with imidazole elution; made in house; host or cells: E. coli BL21(DE3)
Experiment: Thermal shift assay (TSA) with SYPRO Orange
Type: binding
Experimental: Thermal shift assays were performed on an Applied Biosystems 7500 RT-PCR (Applied Biosystems, Foster City, CA USA). All experiments were carried out in triplicate with 1 °C per minute increments in temperatures that range from 25 to 85 °C in 96-well PCR plates (PCR plates 96-well, BioRad), sealed with transparent capping strips (Flatcap strips, BioRad). The fluorescence of SYPRO Orange (Invitrogen S6650) was monitored (excitation wavelength, 492 nm; emission wavelength, 610 nm). Before the compounds’ screening, protein and DMSO concentrations were evaluated to improve PaPhzD stability throughout the assay.
The protein concentration required for an optimal signal-to-noise ratio (>5-fold) was evaluated by analysis of the raw fluorescence curves at different PaPhzD concentrations (1–5 μM). Then, the effect of DMSO (0–10%) over PaPhzD T m was evaluated at the optimal protein concentration. Fluorescence raw data were recorded using Applied Biosystems 7500 Software v2.0 and then processed with NAMI software to calculate T m values by the first-derivative method.
LDT compounds were screened at a final concentration of 50 μM. Briefly, 1 μL of each compound (1 mM DMSO stock solution) was added to a mixed solution containing 5 μM PaPhzD diluted in 50 mM Tris–HCl buffer (pH 8.0) containing 100 mM NaCl, 1 mM DTT, and SYPRO Orange dye (Invitrogen S6650) (1:100 dilution). Each compound was assayed in triplicate, and ΔT m values were calculated by comparison to reference wells that had 1 μL DMSO instead of the LDT compounds. Differences between T m values (ΔT m) were considered statistically significant when p < 0.01, according to the one-way ANOVA followed by Dunnett’s post-test for multiple comparisons, available in GraphPad Prism 9.0 software (GraphPad Software, San Diego, CA, USA, www.graphpad.com).
Compounds with ΔT m values statistically different from the reference were also assayed at different concentrations (ranging from 6.25 to 100 μM) to evaluate the concentration–response behavior. The ΔT m versus concentration plots were generated using the nonlinear regression method available in GraphPad Prism version 9.0.

T1 sequence (P0DPB9 whole entry): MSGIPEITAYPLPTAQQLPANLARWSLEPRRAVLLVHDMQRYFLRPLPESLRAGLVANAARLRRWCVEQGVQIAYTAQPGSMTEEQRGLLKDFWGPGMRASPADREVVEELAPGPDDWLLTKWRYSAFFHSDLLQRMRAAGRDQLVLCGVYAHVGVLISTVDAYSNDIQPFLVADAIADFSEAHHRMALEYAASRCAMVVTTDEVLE

In the case of `CCCCCCCCCCCCCCCc1cccc(O)c1` [Compound 2], the “ΔTm of PaPhzD” value (50 μM compound, 5 μM PaPhzD, vs DMSO reference) is reported as −3.8 °C and the “Concentration–response behavior of ΔTm” value (6.25 to 100 μM) is reported as “clear concentration–response behavior”.

Source: PMC12756723, “Derivatives of the Cashew Nut Shell Liquid as Ligands of Pseudomonas aeruginosa Phenazine Protein D (PaPhzD)” (ACS Omega, 2025)
